Results on seven molecules are retold here after patent US20230382928A1, “EUROPIUM(III) COMPLEXES AS PH SENSORS” (CISBIO BIOASSAYS, priority 2020, published 2023).

Series [1] in a line: Absorption spectra / molar extinction coefficient (Beer-Lambert). The series is classed as physicochemical. As to conditions: for λexc (nm): excitation wavelength; for ε: molar extinction coefficient at λexc. Here is the method:
The properties of representative complexes of the invention (complexes 14, 18, 21, 78a, 78b, 88a, 88b, 93, 104) were investigated. The presence of the Boc-group was not predicted to alter these properties. The experiments were thus carried out with the Boc group for the functionalized complexes. The absorption and emission spectra were recorded in a pH gradient (pH 4 to pH 10).
(§1) Traditionally, molar extinction coefficients, ε, are calculated using the Beer-Lambert equation and involve measuring the absorbance of a series of solutions of a complex at different known concentrations. A plot of absorbance at a particular wavelength against concentration allows determination of ε from the gradient of the linear correlation. The quantum yield (QY) of the complexes increases as the pH decreases. For complexes 78b, 88a, 88b and 93, the quantum yield at pH 8 is approaching 0 meaning that the complexes are therefore hardly emissive at physiological pH and conversely, these complexes are very bright at pH 4.
This could be useful as excitation at, or near, this wavelength would allow equal excitation of both the unprotonated and protonated complex, which exist in a pH-dependent equilibrium in solution. An isosbestic point was not observed for Complex 14.

Series [2] can be described thus: Quantum yield of europium complexes at different pH. It counts as physicochemical. The following applies: for Q.Y. pH 4 / Q.Y. pH 8: text gives the same values in %; for Q.Y. pH 4 / ΦpH 4 (quantum yield): pH 4; for ΦpH 4 (quantum yield) / ΦpH 8 (quantum yield): λexc 330-332 nm; for Q.Y. pH 8 / ΦpH 8 (quantum yield): pH 8. Here is the method:
The properties of representative complexes of the invention (complexes 14, 18, 21, 78a, 78b, 88a, 88b, 93, 104) were investigated. The presence of the Boc-group was not predicted to alter these properties. The experiments were thus carried out with the Boc group for the functionalized complexes. […]
as §1

Series [3] in a line: Excited state (emission) lifetime at different pH. It counts as physicochemical.
Procedure: (§2) An emission lifetime value at each pH was obtained by plotting the decay of the emission lifetime over time and fitting the curve to a simple exponential decay model. The pKa values of the complexes were determined for the reversible protonation.
The nature of series [4]: pKa determination from emission lifetime variation versus pH.
Procedure: as §2
The nature of series [5]: Fluorescence intensity at 620 nm as a function of pH (Pherastar FS plate reader). The series is classed as physicochemical. As to conditions: pH 4 to pH 7.8; 0.1% BSA; FIG. 29. As to the method: The fluorescence intensity of representative complexes of the invention (78a, 78b, 104) was measured using a Plate Reader Pherastar FS equipped with a flash lamp. The buffers (pH 4 to pH 7.8) were distributed in a white 96-well plate, then the lanthanide complexes (10 μL at 110 nM) were distributed in an aqueous solution comprising 0.1% BSA. By way of comparison, the fluorescence intensity of the following complexes was also measured: […]

Take `CCN(CC)c1cc(C#Cc2cc(CN3CCN(Cc4cccc(P(C)(=O)[O-])n4)CCN(Cc4cccc(P(C)(=O)[O-])n4)CC3)nc(P(C)(=O)[O-])c2)ccc1OC.[Eu+3]` [Complex 14]: the isosbestic point result in series [1] (absorption spectra pH 4 to 10) is listed as “not observed”. The “ε (molar extinction coefficient)” value in series [1] (at the wavelength (330-336 nm)) is 11450 M⁻¹ cm⁻¹. Also, the “λexc (nm)” value in series [1] amounted to 331 nm. Besides, the “ε” value in series [1] was found to be 11450 M⁻¹ cm⁻¹. For the same molecule, in series [2], the Q.Y. pH 4 worked out at 16.8%. Moreover, in series [2], the “ΦpH 4 (quantum yield)” value came to 16.8%. Besides, the Q.Y. pH 8 in series [2] stood at 0.5%. Besides, in series [2], the “ΦpH 8 (quantum yield)” value was found to be 0.5%. Also, the Excited state lifetime in series [3] (pH 4) amounted to 1.16 ms; in series [3] (pH 5) it was 1.15 ms; in series [3] (pH 6), 1.06 ms; in series [3] (pH 7) it was 0.74 ms; in series [3] (pH 8) it was 0.53 ms; in series [3] (pH 9, listed as 14), 0.5 ms. In addition, in series [3] (pH 9, listed as drawing 59), the Excited state lifetime is on record as 0.50 ms. The molecule also returned a pKa in series [4] (295 K, I = 0.1M NaCl) of 6.75.

`CCN(CC)c1cc(C#Cc2cc(CN3CCN(Cc4cc(C#Cc5ccc(OC)c(N(CC)CC)c5)cc(P(C)(=O)[O-])n4)CCN(Cc4cc(C#Cc5ccc(OC)c(N(CC)CC)c5)cc(P(C)(=O)[O-])n4)CC3)nc(P(C)(=O)[O-])c2)ccc1OC.[Eu+3]` [Complex 21]: the “ε (molar extinction coefficient)” value in series [1] (at the wavelength (330-331 nm)) is 45000 L M^−1 cm^−1. The “λexc (nm)” value in series [1] was found to be 331 nm. In addition, in series [1], the “ε” value was 45000 M⁻¹ cm⁻¹. For the same molecule, the Q.Y. pH 4 in series [2] is 17%. Besides, the Q.Y. pH 8 in series [2] was 0.1%. In addition, the Excited state lifetime in series [3] (pH 4) worked out at 0.84 ms; in series [3] (pH 5), 0.83 ms; in series [3] (pH 6) it was 0.59 ms; in series [3] (pH 7), 0.32 ms; in series [3] (pH 8), 0.25 ms; in series [3] (pH 9), 0.24 ms. In series [4] (295 K, I = 0.1M NaCl), this molecule yielded a pKa of 6.21.

Consider `CCN(CC)c1cc(C#Cc2cc(CN3CCN(Cc4cc(C#Cc5ccc(OCCCC(=O)O)c(N(CC)CC)c5)cc(P(C)(=O)[O-])n4)CCN(Cc4cc(CCCNC(=O)OC(C)(C)C)cc(P(C)(=O)[O-])n4)CC3)nc(P(C)(=O)[O-])c2)ccc1OCCCC(=O)O.[Eu+3]` [Complex 77a], for which the Excited state lifetime in series [3] (pH 4) was found to be 0.97 ms; in series [3] (pH 5), 0.95 ms; in series [3] (pH 6), 0.53 ms; in series [3] (pH 7) it was 0.39 ms; in series [3] (pH 8), 0.27 ms.

On to `CCN(CC)c1cc(C#Cc2cc(CN3CCN(Cc4cc(C#Cc5ccc(OCCCC(=O)NCCCS(=O)(=O)[O-])c(N(CC)CC)c5)cc(P(C)(=O)[O-])n4)CCN(Cc4cc(CCCNC(=O)OC(C)(C)C)cc(P(C)(=O)[O-])n4)CC3)nc(P(C)(=O)[O-])c2)ccc1OCCCC(=O)NCCCS(=O)(=O)[O-].[Eu+3]` [Complex 78a], for which the “ε (molar extinction coefficient)” value in series [1] (at the wavelength (330-331 nm)) is 39000 L M^−1 cm^−1. The “λexc (nm)” value in series [1] turned out to be 330 nm. Also, in series [1], the “ε” value is 39000 M⁻¹ cm⁻¹. In addition, the Q.Y. pH 4 in series [2] was 16%. In addition, the “ΦpH 4 (quantum yield)” value in series [2] turned out to be 16%. The Q.Y. pH 8 in series [2] is 0.3%. Further, the “ΦpH 8 (quantum yield)” value in series [2] came out at 0.3%. The Excited state lifetime in series [3] (pH 4) turned out to be 1.04 ms; in series [3] (pH 5), 0.98 ms; in series [3] (pH 6, listed as 78a) it was 0.7 ms; in series [3] (pH 6, listed as drawing 109), 0.70 ms; in series [3] (pH 7), 0.34 ms; in series [3] (pH 8) it was 0.25 ms. The “variation of fluorescence intensity at 620 nm as a function of pH” value (“variation of fluorescence intensity” below) in series [5] is given as “pH sensitive”. In series [4] (295 K, I = 0.1M NaCl), this molecule showed a pKa of 6.20.

For the molecule `CCN(C)c1cc(C#Cc2cc(CN3CCN(Cc4cc(C#Cc5ccc(OCCCC(=O)NCCCS(=O)(=O)[O-])c(N(C)CC)c5)cc(P(C)(=O)[O-])n4)CCN(Cc4cc(CCCNC(=O)OC(C)(C)C)cc(P(C)(=O)[O-])n4)CC3)nc(P(C)(=O)[O-])c2)ccc1OCCCC(=O)NCCCS(=O)(=O)[O-].[Eu+3]` [Complex 78b], the “ε (molar extinction coefficient)” value in series [1] (at the wavelength (330-331 nm)) was 39000 L M^−1 cm^−1. The “λexc (nm)” value in series [1] turned out to be 330 nm. In addition, the “ε” value in series [1] stood at 39000 M⁻¹ cm⁻¹. In series [2], this molecule came in with a Q.Y. pH 4 of 14.5%. Moreover, the “ΦpH 4 (quantum yield)” value in series [2] is recorded as 14.5%. Also, the “ΦpH 8 (quantum yield)” value in series [2] is 0.01%. The Excited state lifetime was determined as 1.05 ms in series [3] (pH 4); 0.77 ms in series [3] (pH 5); 0.42 ms in series [3] (pH 6); 0.29 ms in series [3] (pH 7); 0.3 ms in series [3] (pH 8, listed as 78b); 0.30 ms in series [3] (pH 8, listed as drawing 110). Also, in series [5], the “variation of fluorescence intensity” value is given as “pH sensitive”. Further, the pKa in series [4] (295 K, I = 0.1M NaCl) came out at 5.34.

As to `CCN(CCCS(=O)(=O)O)c1cc(C#Cc2cc(CN3CCN(Cc4cc(C#Cc5ccc(OC)c(N(CC)CCCS(=O)(=O)O)c5)cc(P(C)(=O)O)n4)CCN(Cc4cc(CCCNC(=O)OC(C)(C)C)cc(P(C)(=O)O)n4)CC3)nc(P(C)(=O)O)c2)ccc1OC` [Complex 88a], the “ε (molar extinction coefficient)” value in series [1] (at the wavelength (330-336 nm)) stood at 35000 M⁻¹ cm⁻¹. In addition, in series [1], the “λexc (nm)” value came out at 332 nm. Further, the “ε” value in series [1] turned out to be 35000 M⁻¹ cm⁻¹. In series [2], this molecule yielded a Q.Y. pH 4 of 13.4%. Also, in series [2], the “ΦpH 4 (quantum yield)” value was determined as 13.4%. In addition, the “ΦpH 8 (quantum yield)” value in series [2] is 0.06%. In addition, the Excited state lifetime in series [3] (pH 4) was 1.07 ms; in series [3] (pH 5), 0.76 ms; in series [3] (pH 6) it was 0.41 ms; in series [3] (pH 7), 0.29 ms; in series [3] (pH 8) it was 0.31 ms; in series [3] (pH 9), 0.31 ms. In series [4] (0.1 M NaCl (ionic strength)), this molecule displayed a pKa of 5.2.

In the case of `CCN(CC)c1cc(C#Cc2cc(CN(CC(=O)O)CC(=O)O)nc(CN(CC(=O)O)CC(=O)O)c2)ccc1OCCCN` [Complex 104], in series [1] (at the wavelength (330-336 nm)), the “ε (molar extinction coefficient)” value worked out at 12000 M⁻¹ cm⁻¹. For the same molecule, the “λexc (nm)” value in series [1] stood at 330 nm. In series [1], the “ε” value came out at 12000 M⁻¹ cm⁻¹. The molecule further gave a Q.Y. pH 4 in series [2] of 3.2%. The “ΦpH 4 (quantum yield)” value in series [2] was 3.2%. Also, the Q.Y. pH 8 in series [2] is 0.17%. For the same molecule, in series [2], the “ΦpH 8 (quantum yield)” value is 0.17%. Also, the Excited state lifetime in series [3] (pH 4) was 0.38 ms; in series [3] (pH 5), 0.37 ms; in series [3] (pH 6) it was 0.35 ms; in series [3] (pH 7), 0.32 ms; in series [3] (pH 8, listed as 104), 0.3 ms; in series [3] (pH 8, listed as drawing 127), 0.30 ms. In addition, the “variation of fluorescence intensity” value in series [5] is reported as “pH sensitive”. Moreover, in series [4] (0.1 M NaCl (ionic strength)), the pKa came out at 6.35.

As usually defined, the pKa is the negative logarithm of the acid dissociation constant. The low end stands for a group that gives up its proton readily, the high end for a group that holds its proton tightly.
